Key:
SK-MEL-2 = assay: NCI60 one-dose screen (10 μM), Melanoma; format: cell-based; conditions: Homo sapiens; 10 μM; SK-MEL-2, Melanoma; read-out: Growth percent rate
MDA-MB-435 = assay: NCI60 one-dose screen (10 μM), Melanoma; format: cell-based; conditions: Homo sapiens; 10 μM; MDA-MB-435, Melanoma; read-out: Growth percent rate
ACHN = assay: NCI60 one-dose screen (10 μM), Renal Cancer; format: cell-based; conditions: Homo sapiens, 10 μM, Renal Cancer, read-out: Growth percent rate
786–0 = assay: NCI60 one-dose screen (10 μM), Renal Cancer; format: cell-based; conditions: Homo sapiens; 10 μM; 786-0, Renal Cancer; read-out: Growth percent rate
HCT-15 = assay: NCI60 one-dose screen (10 μM), Colon Cancer; format: cell-based; conditions: Homo sapiens; 10 μM; HCT-15, Colon Cancer; read-out: Growth percent rate
HL-60(TB) = assay: NCI60 one-dose screen (10 μM), Leukemia; format: cell-based; conditions: Homo sapiens; 10 μM; HL-60(TB), Leukemia; read-out: Growth percent rate
M14 = assay: NCI60 one-dose screen (10 μM), Melanoma; format: cell-based; conditions: Homo sapiens; 10 μM; M14, Melanoma; read-out: Growth percent rate
MOLT-4 = assay: NCI60 one-dose screen (10 μM), Leukemia; format: cell-based, human; conditions: Homo sapiens; 10 μM; MOLT-4, Leukemia; read-out: Growth percent rate
SK-MEL-5 = assay: NCI60 one-dose screen (10 μM), Melanoma; format: cell-based, human
A549/ATCC = assay: NCI60 one-dose screen (10 μM), Non-small Cell Lung Cancer; format: cell-based; conditions: Homo sapiens; 10 μM; A549/ATCC, Non-small Cell Lung Cancer; read-out: Growth percent rate
NCI-H23 = assay: as above; format: cell-based; conditions: Homo sapiens; 10 μM; NCI-H23, Non-small Cell Lung Cancer; read-out: Growth percent rate
SF-268 = assay: NCI60 one-dose screen (10 μM), CNS Cancer; format: cell-based; conditions: Homo sapiens; 10 μM; SF-268, CNS Cancer; read-out: Growth percent rate
K-562 = assay: NCI60 one-dose screen (10 μM), Leukemia; format: cell-based; conditions: Homo sapiens, K562; 10 μM; K-562, Leukemia; read-out: Growth percent rate
IGROV1 = assay: NCI60 one-dose screen (10 μM), Ovarian Cancer; format: cell-based; conditions: Homo sapiens, IGROV-1; 10 μM; IGROV1, Ovarian Cancer; read-out: Growth percent rate
UACC-257 = assay: NCI60 one-dose screen (10 μM), Melanoma; format: cell-based; conditions: Homo sapiens; 10 μM; UACC-257, Melanoma; read-out: Growth percent rate
EKVX = assay: NCI60 one-dose screen (10 μM), Non-small Cell Lung Cancer; format: cell-based; conditions: Homo sapiens, 10 μM, Non-small Cell Lung Cancer, read-out: Growth percent rate
SNB-75 = assay: NCI60 one-dose screen (10 μM), CNS Cancer; format: cell-based, human; conditions: Homo sapiens; 10 μM; SNB-75, CNS Cancer; read-out: Growth percent rate
HS 578T = assay: NCI60 one-dose screen (10 μM), Breast Cancer; format: cell-based; conditions: Homo sapiens; 10 μM; HS 578T, Breast Cancer; read-out: Growth percent rate
CCRF-CEM = assay: NCI60 one-dose screen (10 μM), Leukemia; format: cell-based; conditions: Homo sapiens, 10 μM, Leukemia, read-out: Growth percent rate
SN12C = assay: NCI60 one-dose screen (10 μM), Renal Cancer; format: cell-based; conditions: Homo sapiens, 10 μM, Renal Cancer, read-out: Growth percent rate
OVCAR-8 = assay: NCI60 one-dose screen (10 μM), Ovarian Cancer; format: cell-based; conditions: Homo sapiens; 10 μM; OVCAR-8, Ovarian Cancer; read-out: Growth percent rate
DU-145 = assay: NCI60 one-dose screen (10 μM), Prostate Cancer; format: cell-based; conditions: Homo sapiens; 10 μM; DU-145, Prostate Cancer; read-out: Growth percent rate
RXF 393 = assay: NCI60 one-dose screen (10 μM), Renal Cancer; format: cell-based, human; conditions: Homo sapiens; 10 μM; RXF 393, Renal Cancer; read-out: Growth percent rate
COLO 205 = assay: NCI60 one-dose screen (10 μM), Colon Cancer; format: cell-based, human
SK-MEL-28 = assay: NCI60 one-dose screen (10 μM), Melanoma; format: cell-based; conditions: Homo sapiens; 10 μM; SK-MEL-28, Melanoma; read-out: Growth percent rate
NCI-H322M = assay: NCI60 one-dose screen (10 μM), Non-small Cell Lung Cancer; format: cell-based; conditions: Homo sapiens, 10 μM, Non-small Cell Lung Cancer, read-out: Growth percent rate
A498 = assay: NCI60 one-dose screen (10 μM), Renal Cancer; format: cell-based; conditions: Homo sapiens; 10 μM; A498, Renal Cancer; read-out: Growth percent rate
NCI-H522 = assay: NCI60 one-dose screen (10 μM), Non-small Cell Lung Cancer; format: cell-based; conditions: Homo sapiens; 10 μM; NCI-H522, Non-small Cell Lung Cancer; read-out: Growth percent rate
HCT-116 = assay: NCI60 one-dose screen (10 μM), Colon Cancer; format: cell-based; conditions: Homo sapiens; 10 μM; HCT-116, Colon Cancer; read-out: Growth percent rate
U251 = assay: NCI60 one-dose screen (10 μM), CNS Cancer; format: cell-based; conditions: Homo sapiens, U-251; 10 μM; U251, CNS Cancer; read-out: Growth percent rate
SF-539 = assay: NCI60 one-dose screen (10 μM), CNS Cancer; format: cell-based, human; conditions: Homo sapiens; 10 μM; SF-539, CNS Cancer; read-out: Growth percent rate
SW-620 = assay: NCI60 one-dose screen (10 μM), Colon Cancer; format: cell-based; conditions: Homo sapiens; 10 μM; SW-620, Colon Cancer; read-out: Growth percent rate
RPMI-8226 = assay: NCI60 one-dose screen (10 μM), Leukemia; format: cell-based; conditions: Homo sapiens; 10 μM; RPMI-8226, Leukemia; read-out: Growth percent rate
[1] = tested on: 60 human tumor cell lines (NCI60); assay: NCI60 one-dose screen (10 μM), whole panel; format: cell-based; conditions: 10 μM; mean over 60 human cancer cell lines; read-out: Growth percent rate, Mean
OVCAR-3 = assay: NCI60 one-dose screen (10 μM), Ovarian Cancer; format: cell-based; conditions: Homo sapiens; 10 μM; OVCAR-3, Ovarian Cancer; read-out: Growth percent rate
HT29 = assay: NCI60 one-dose screen (10 μM), Colon Cancer; format: cell-based; conditions: Homo sapiens, HT-29; 10 μM; HT29, Colon Cancer; read-out: Growth percent rate
MCF7 = assay: NCI60 one-dose screen (10 μM), Breast Cancer; format: cell-based; conditions: Homo sapiens; 10 μM; MCF7, Breast Cancer; read-out: Growth percent rate
NCI-H460 = assay: NCI60 one-dose screen (10 μM), Non-small Cell Lung Cancer; format: cell-based; conditions: Homo sapiens; 10 μM; NCI-H460, Non-small Cell Lung Cancer; read-out: Growth percent rate
OVCAR-4 = assay: NCI60 one-dose screen (10 μM), Ovarian Cancer; format: cell-based; conditions: Homo sapiens; 10 μM; OVCAR-4, Ovarian Cancer; read-out: Growth percent rate
CAKI-1 = assay: NCI60 one-dose screen (10 μM), Renal Cancer; format: cell-based; conditions: Homo sapiens; 10 μM; CAKI-1, Renal Cancer; read-out: Growth percent rate
HOP-62 = assay: NCI60 one-dose screen (10 μM), Non-small Cell Lung Cancer; format: cell-based; conditions: Homo sapiens; 10 μM; HOP-62, Non-small Cell Lung Cancer; read-out: Growth percent rate
HCC-2998 = assay: NCI60 one-dose screen (10 μM), Colon Cancer; format: cell-based; conditions: Homo sapiens; 10 μM; HCC-2998, Colon Cancer; read-out: Growth percent rate

`CC[C@]12C=CCN3CC[C@@]4(c5ccc(OC)cc5N(C)[C@H]4[C@@](O)(C(=O)OC)[C@@H]1OC(=O)CCC(=O)N1CCN(c4ccc(C(F)(F)F)cc4)CC1)[C@@H]32` [Compound 28] showed an activity at 10 µM (SK-MEL-2) of -84.7%, an activity at 10 µM (MDA-MB-435) of 5.7% and an activity at 10 µM (ACHN) of -3.87%. The activity at 10 µM (786–0) was 20.7%, the activity at 10 µM (HCT-15) was 6.71% and the activity at 10 µM (HL-60(TB)) was 4.32%. For the same compound, the activity at 10 µM (M14) was -66.8%, the activity at 10 µM (MOLT-4) was 18.7% and the growth percent rate (SK-MEL-5; 10 μM one-dose, SK-MEL-5 melanoma, negative = lethality) was −92.46%. For the same compound, the activity at 10 µM (SK-MEL-5; Homo sapiens, 10 μM, SK-MEL-5, Melanoma, read-out: Growth percent rate) was -92.5%, the activity at 10 µM (A549/ATCC) was 13.6% and the activity at 10 µM (NCI-H23) was 8.32%. It also gave an activity at 10 µM (SF-268) of 13.1%, an activity at 10 µM (K-562) of 16.9% and an activity at 10 µM (IGROV1) of -42.3%. It also gave an activity at 10 µM (UACC-257) of 19.5%, an activity at 10 µM (EKVX) of 20.9% and an activity at 10 µM (SNB-75) of 26.2%. For the same compound, the activity at 10 µM (HS 578T) was 20.1%, the activity at 10 µM (CCRF-CEM) was 4.4% and the activity at 10 µM (SN12C) was 9.74%. For the same compound, the activity at 10 µM (OVCAR-8) was 10.7%, the activity at 10 µM (DU-145) was 15.4% and the activity at 10 µM (RXF 393) was -12.9%. The growth percent rate (COLO 205; 10 μM one-dose, COLO-205 colon cancer, negative = lethality) was −90.33%, the activity at 10 µM (COLO 205; Homo sapiens, 10 μM, COLO 205, Colon Cancer, read-out: Growth percent rate) was -90.3% and the activity at 10 µM (SK-MEL-28) was 15%. It also gave an activity at 10 µM (NCI-H322M) of 43.7%, an activity at 10 µM (A498) of 21.6% and an activity at 10 µM (NCI-H522) of -9.16%. It also gave an activity at 10 µM (HCT-116) of 29.4%, an activity at 10 µM (U251) of 12.4% and an activity at 10 µM (SF-539) of 8.28%. The activity at 10 µM (SW-620) was 20.7%, the activity at 10 µM (RPMI-8226) was 8.8% and the activity at 10 µM [1] was -3.07%. The activity at 10 µM (OVCAR-3) was -2.22%, the activity at 10 µM (HT29) was -50.4% and the activity at 10 µM (MCF7) was 3.97%. For the same compound, the activity at 10 µM (NCI-H460) was 1.83%, the activity at 10 µM (OVCAR-4) was 6.5% and the activity at 10 µM (CAKI-1) was -10.2%. It also gave an activity at 10 µM (HOP-62) of 30.4% and an activity at 10 µM (HCC-2998) of -75.2%.

— publication PMC11277489, “Novel Piperazine Derivatives of Vindoline as Anticancer Agents” (International Journal of Molecular Sciences, 2024)
